Assay results reported in patent US12544388B2, “Compound for treating and/or preventing diseases caused by coronavirus and use thereof” (SHANGHAITECH UNIVERSITY, priority 2020, dated 2026).
pIC50: −log10 of the molar value.

Key:
[1] = biological target: SARS-CoV-2 papain-like protease (Severe acute respiratory syndrome coronavirus 2, UniProt P0DTD1); type: biochemical; details: for inhibition of papain-like protease activity versus negative control: 50 μM inhibitor, 0.2 μM enzyme (FIG. 4, FIG. 5)
[2] = Phase I, patients with advanced solid tumors; cited from earlier work
[3] = in vitro; details: African green monkey

Row | Structure (SMILES) | pIC50 ([1]; 200 nM enzyme, 20 μM substrate, 10 min room temperature, read-out: IC50, inhibitory activity on novel coronavirus papain-like protease) | MTD (maximum tolerated dose) [2] [mg/m^2/d] | CC50 [3] [µM] | inhibition of papain-like protease activity versus negative control [1]
1 | Br.COCCn1c2c([n+](Cc3cnccn3)c1C)C(=O)c1ccccc1C2=O [YM155, Sepantronium Bromide] | 5.61 | 8.0 | > 133 | –
2 | Cc1coc2c1C(=O)C(=O)c1c-2ccc2c(C)cccc12 [tanshinone I, Tanshinone I] | – | – | > 300 | significantly inhibit
3 | C[C@H]1COC2=C1C(=O)C(=O)c1c2ccc2c1CCCC2(C)C [cryptotanshinone, Cryptotanshinone] | – | – | > 300 | significantly inhibit
